{
  "source": "paper PMC5400565",
  "about": "“Real-time near-infrared fluorescence imaging using cRGD-ZW800-1 for intraoperative visualization of multiple cancer types” (Oncotarget, 2017)",
  "key": {"Adrenergic α1A": {"target": "T1, Adrenergic α1A (Homo sapiens, UniProt P35348)", "T1 construct": "Eurofins Cerep SA (contract screening)", "T1 sequence (P35348 1-466)": "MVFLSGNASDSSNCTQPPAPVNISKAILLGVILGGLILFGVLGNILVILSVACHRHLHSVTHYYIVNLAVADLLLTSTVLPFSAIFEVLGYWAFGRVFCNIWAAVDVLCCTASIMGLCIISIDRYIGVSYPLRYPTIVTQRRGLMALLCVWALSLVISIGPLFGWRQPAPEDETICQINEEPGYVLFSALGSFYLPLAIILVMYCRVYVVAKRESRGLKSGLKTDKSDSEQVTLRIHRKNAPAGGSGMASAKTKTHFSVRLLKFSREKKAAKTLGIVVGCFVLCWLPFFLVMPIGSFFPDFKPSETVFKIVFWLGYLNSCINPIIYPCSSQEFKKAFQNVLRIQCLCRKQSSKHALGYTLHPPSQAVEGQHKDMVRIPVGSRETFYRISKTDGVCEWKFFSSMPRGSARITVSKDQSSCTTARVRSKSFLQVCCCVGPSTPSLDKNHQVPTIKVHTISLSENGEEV", "experiment": "Off-target screening (Eurofins Cerep), α1A", "type": "binding", "conditions": "reference compound, format H, An", "from_the_text": "(§1) Off-target interactions are binding of tracers to other components on the cell surface than the actual target site. These non-specific interactions are often of low affinity and easily missed, but can have significant effects. We outsourced the screening for in vitro for off-target interactions of cRGD-ZW800-1 to Eurofins Cerep SA, Le bois l’Evêque, France. They assessed the percentage of inhibition of a reference compound in 44 selected targets, including G protein-coupled receptors (GPCRs), transporters, ion channels, nuclear receptors, kinases and other non-kinase enzymes. These targets were recommended by four major pharmaceutical companies. The complete list is included in Supplementary Table 1 of the Supplementary Data. Each assay was performed twice using 10 μM cRGD-ZW800-1 and a reference compound. Inhibition higher than 50% was considered to represent a significant effect of cRGD-ZW800-1. Results showing between 20% and 50% were considered weak to moderate effects, while lower than 20% was not considered significant and mostly attributable to variability of the signal around the control level."}, "[1]": {"target": "T2, 5-hydroxytryptamine (serotonin) receptor 2B (5-HT2B) (Homo sapiens, UniProt P41595)", "T2 construct": "Eurofins Cerep SA (contract screening)", "T2 sequence (P41595 whole entry)": "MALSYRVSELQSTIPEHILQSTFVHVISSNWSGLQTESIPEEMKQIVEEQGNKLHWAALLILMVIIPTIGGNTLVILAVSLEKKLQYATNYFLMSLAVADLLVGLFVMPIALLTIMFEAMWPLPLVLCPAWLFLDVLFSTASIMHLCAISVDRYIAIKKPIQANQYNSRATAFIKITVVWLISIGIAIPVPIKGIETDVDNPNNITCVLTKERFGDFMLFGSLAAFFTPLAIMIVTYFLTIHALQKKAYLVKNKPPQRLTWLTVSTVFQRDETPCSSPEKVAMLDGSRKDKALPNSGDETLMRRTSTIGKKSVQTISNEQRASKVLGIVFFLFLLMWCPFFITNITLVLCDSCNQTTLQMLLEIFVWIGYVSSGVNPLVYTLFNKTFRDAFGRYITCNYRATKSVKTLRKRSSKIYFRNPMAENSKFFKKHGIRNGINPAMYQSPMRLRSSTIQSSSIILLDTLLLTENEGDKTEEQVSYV", "experiment": "Off-target screening (Eurofins Cerep), 5-HT2B", "type": "binding", "conditions": "reference compound, format H, Ag", "from_the_text": "as §1"}, "[2]": {"conditions": "human, in vivo, iv; cited from earlier work", "from_the_text": "Besides interacting with extracellular matrix proteins, integrin αvβ3 can also modulate intracellular pathways essential for COX-2 expression. The inhibition of COX-2 as shown in the in vitro off-target screening may be the result of binding cRGD-ZW800-1 to integrin αvβ3."}, "KV channel": {"system": "KV channel", "experiment": "Off-target screening (Eurofins Cerep), KV channel", "type": "binding", "conditions": "reference compound, format An", "from_the_text": "as §1"}, "[3]": {"system": "GABA channels BZD (central)", "experiment": "Off-target screening (Eurofins Cerep), BZD (central)", "type": "binding", "conditions": "reference compound, format Ag", "from_the_text": "as §1"}, "Na+ channel (site 2)": {"system": "Na+ channel (site 2)", "experiment": "Off-target screening (Eurofins Cerep), Na+ channel", "type": "binding", "conditions": "reference compound, format An", "from_the_text": "as §1"}},
  "data": [
    {"molecule": "COc1cccc(OC)c1OCCNCC1COc2ccccc2O1", "note": "(stereo not drawn) [WB 4101, reference compound]", "values": [
      {"measurement": "IC50", "setting": "Adrenergic α1A", "value": 0.46, "unit": "nM"}
    ]},
    {"molecule": "COc1cc(CC(C)N)c(OC)cc1I", "note": "(racemic) [(±)DOI, reference compound]", "values": [
      {"measurement": "IC50", "setting": "[1]", "value": 4, "unit": "nM"}
    ]},
    {"molecule": "cilengitide", "values": [
      {"measurement": "side effects", "setting": "[2]", "value": "without serious side effects"}
    ]},
    {"molecule": "Alpha -dendrotoxin [reference compound]", "values": [
      {"measurement": "IC50", "setting": "KV channel", "value": 0.23, "unit": "nM"}
    ]},
    {"molecule": "CN1C(=O)CN=C(c2ccccc2)c2cc(Cl)ccc21", "note": "[Diazepam, reference compound]", "values": [
      {"measurement": "IC50", "setting": "[3]", "value": 12, "unit": "nM"}
    ]},
    {"molecule": "COc1ccc(C(=O)O[C@H]2CC[C@@]3(C)[C@@H]4CC[C@H]5[C@]6(O)C[C@H](O)[C@@]7(O)[C@@H](CN8C[C@@H](C)CC[C@H]8[C@@]7(C)O)[C@]6(O)C[C@@]53O[C@]24O)cc1OC", "note": "[Veratridine, reference compound]", "values": [
      {"measurement": "IC50", "setting": "Na+ channel (site 2)", "value": 6.8, "unit": "µM"}
    ]}
  ]
}
